Measurements from patent US9044452B2, “Use of resiniferatoxin (RTX) for producing an agent for treating joint pains and method for applying said agent” (MESTEX AG, priority 2004, dated 2015).

Legend:
[1] = tested on: knee joint; assay: Injection of resiniferatoxin solution into the intracapsular space of a patient's knee joint; assay type: in vivo, human
Method: (§1) Under the optionally simultaneous (image converter, CT, sonography, MRI, etc.) or subsequent (x-ray, CT, MRI, sonography, arthroscopy, etc.) imaging control, the therapist brought an injection needle into the joint space of a knee joint and injected 9 mL of a 500 nmolar solution (approximately 0.003 mg) of resiniferatoxin into the intracapsular space. The patient noted a clear alleviation of their symptoms already 14 hours after the intervention. This alleviation lasted for more than 6 months.
Under the optionally simultaneous (image converter, CT, sonography, MRI, arthroscopy, etc.) or subsequent (x-ray, CT, MRI, sonography, etc.) imaging control, the therapist brought an injection needle into the joint space of a knee joint and injected […] of a 500 nmolar solution (approximately 0.006 mg) of resiniferatoxin into the intracapsular space. The patient noted a clear alleviation of their symptoms already a few days after the intervention. This alleviation lasted for more than 6 months.
The injected solution corresponded to that of Example 1 with the difference that, for the imaging method to be used, 5 mL of a visible contrasting agent (Iopamidol) was added at a concentration of 50 g/100 mL. After the injection, this contrasting agent spread out within the joint capsule and documented the position of the injection needle and the distribution of the RTX within the joint capsule. The injected solution, containing RTX, was drawn off again directly after the injection. It could, however, also be drawn off after a defined, substance-dependent time of action or not be drawn off at all. The patient noted a clear alleviation of their symptoms already 15 hours after the intervention. This alleviation lasted for more than 8 months.
as §1, with “nM (approx.” for “nmolar solution (approximately”, “mg) solution” for “mg)”, “resiniferatoxin, buffered with a buffer to a pH of 8.5, together physiological salt solution” for “resiniferatoxin”, “a few minutes” for “14 hours”
Under the optionally simultaneous (image converter, CT, sonography, MRI, etc.) or subsequent (x-ray, CT, MRI, sonography, arthroscopy, etc.) imaging control, the therapist, brought an injection needle into the joint space of a knee joint and injected 9 mL of a 500 nmolar solution (approximately 0.003 mg) of resiniferatoxin, buffered to a pH of 6.5 with a buffer, together with a physiological salt solution into the intracapsular space.
Under the optionally simultaneous (image converter, CT, sonography, MRI, etc.) or subsequent (x-ray, CT, MRI, sonography, arthroscopy, etc.) imaging control, the therapist, brought an injection needle into the joint space of a knee joint and injected 9 mL of a 500 nmolar solution (approximately 0.003 mg) of resiniferatoxin, in a physiological Ringer solution with 10 mmolar Ca2+ into the intracapsular space.

[2] = tested on: affected joint; assay: Continuous infusion of resiniferatoxin solution into the affected joint via infusion catheter; assay type: in vivo, human; settings: Example 4: 100 nmolar
Method: The therapist placed a thin infusion catheter, similar to an epidural catheter, into the affected joint and, with a perfuser, injected a solution of […] of 100 nmolar of resiniferatoxin into the affected joint at a rate of 1-10 mL/h for 12 hours. Optionally, they also placed a drainage catheter with an optionally defined drainage resistance (such as 20 mm Hg), in order to achieve a liquid turnover. With this method, the therapist achieved a uniform infiltration of the painful joint, without large concentration peaks. Moreover, it was possible to define the period of action better.
The patient noted a clear alleviation of their symptoms already 12 hours after the intervention. This alleviation lasted for more than 1 year.

[3] = tested on: postoperative pain; assay: Injection of resiniferatoxin after knee or hip joint prosthesis implantation (postoperative pain); assay type: in vivo, human
Method: After a knee joint prosthesis had been implanted, the therapist injected 50 mL of a solution of 100 nmolar (approximately 0.001 mg) solution of resiniferatoxin into the joint capsule, which had been closed off once again.
After a hip joint prosthesis had been implanted, the therapist injected 50 mL of a solution of 100 nmolar (approximately 0.001 mg) solution of resiniferatoxin into the periprosthetic region without a capsule.

[4] = tested on: painful, septic loosening of a total hip endoprosthesis; assay: Injection into (neo)-capsule about the prosthesis in painful, septic loosening of a total hip endoprosthesis; assay type: in vivo, human
Method: A solution of 5 μmolar (approximately 0.03 mg) solution of resiniferatoxin was injected into the (neo)-capsule about the prosthesis of a patient with a painful, septic loosening of a total hip endoprosthesis. […] Optionally, this treatment may be supported with systemically administered antibiotics (such as 450 mg of Rifampicin, 750 mg of ciproflaxacin).

[5] = tested on: shoulder joint; assay: Injection into shoulder joint of patient with painful capsulitis of joints (frozen shoulder); assay type: in vivo, human; settings: for joint mobility lost due to capsulitis: with physiotherapy
Method: The shoulder joint of a patient with painful capsulitis of joints (frozen shoulder) was injected with 9 mL of a 100 nmolar (approximately 0.001 mg) solution of resiniferatoxin in physiological salt solution. Once again, it was possible to check the distribution of the substance by adding the appropriate contrasting agent and employing an imaging procedure. Optionally, a substance with antiphlogistic activity was admixed. […] For this application, only a temporary analgesia (2-3 weeks) is desired. For this reason, the concentration of the neurotoxic substances, if anything, was kept low.
The shoulder joint of a patient with painful capsulitis of joints (frozen shoulder) was injected with 3 mL of a 500 nmolar (approximately 0.001 mg) solution of resiniferatoxin in physiological salt solution.

[6] = tested on: chronically inflamed bursa (Bursa trochenterica); assay: Injection into chronically inflamed bursa (Bursa trochenterica); assay type: in vivo, human
Method: The therapist injected 5 mL of a solution of a 500 nmolar (approximately 0.001 mg) solution of resiniferatoxin, buffered to a pH of 8.5 with a buffer, together with physiological salt solution as solvent, into a chronically inflamed bursa (Bursa trochenterica) over the greater trochanter of the hip. Within 60 minutes, the symptoms of the patient disappeared and the patient remained asymptomatic at this place for several years.
The therapist injected 50 mL of a 100 nmolar (approximately 0.001 mg) solution of resiniferatoxin in glycerin or Ringer lactate as solvent. Within 60 minutes, the symptoms of the patient disappeared and the patient remained asymptomatic at this place for several years.

[7] = Local application of RTX without local anesthetic, compared with capsaicin or with combination with local anesthetic; assay type: in vivo
Source text: Moreover, it is free of inflammation and pain. In particular, this preparation may be used without using ethanol, which otherwise is always necessary for the known intravesical administration. It is a further surprising advantage of the use without local or general anesthesia that, due to the injection, a warm, pleasant sensation sets in, which decisively supports combating pain. In this way, an amelioration of pain is achieved, which surpasses that of a combination with local anesthetics. This may also be explained by the antagonistic effect, which the local anesthetics have for vanilloid receptor agonists since they partially block the desired neurotoxic effect of vanilloids.

[8] = Example 1: 9 mL of 500 nmolar solution, knee joint, intracapsular
[9] = Example 2: 20 mL of 500 nmolar solution, knee joint, intracapsular
[10] = Example 3: solution of Example 1 plus 5 mL Iopamidol 50 g/100 mL, drawn off directly after injection
[11] = Example 8: 9 mL of 500 nM solution buffered to pH 8.5, physiological salt solution, knee joint
[12] = Example 9: 9 mL of 500 nmolar solution buffered to pH 6.5, physiological salt solution, knee joint
[13] = Example 10: 9 mL of 500 nmolar solution in Ringer solution with 10 mmolar Ca2+, knee joint
[14] = 1-10 mL/h for 12 hours via catheter
[15] = Example 7: 5 μmolar solution into (neo)-capsule about the prosthesis
[16] = Example 11: 9 mL of 100 nmolar solution in physiological salt solution, shoulder joint
[17] = Example 12: 3 mL of 500 nmolar solution in physiological salt solution, shoulder joint
[18] = Example 13: 5 mL of 500 nmolar solution buffered to pH 8.5, physiological salt solution, bursa over greater trochanter
[19] = Example 14: 50 mL of 100 nmolar solution in glycerin or Ringer lactate

In the case of `C=C(C)[C@]12C[C@@H](C)[C@@]34O[C@](Cc5ccccc5)(O[C@@H]1[C@@H]3C=C(COC(=O)Cc1ccc(O)c(OC)c1)C[C@]1(O)C(=O)C(C)=C[C@@H]41)O2` [resiniferatoxin], the duration of alleviation [1, 8] is reported as “more than 6 months”, the “time to clear alleviation of symptoms after the intervention” value (from here on “time to clear alleviation of symptoms”) [1, 8] is reported as 14 h and the duration of alleviation [1, 9] is reported as “more than 6 months”. The “time to clear alleviation of symptoms” value [1, 9] was “a few days”, the duration of alleviation [1, 10] was “more than 8 months” and the “time to clear alleviation of symptoms” value [1, 10] was 15 h. The duration of alleviation [1, 11] was “more than 6 months”, the “time to clear alleviation of symptoms” value [1, 11] was “a few minutes” and the duration of alleviation [1, 12] was “more than 6 months”. For the same compound, the “time to clear alleviation of symptoms” value [1, 12] was “Within minutes”, the duration of alleviation [1, 13] was “more than 6 months” and the “time to clear alleviation of symptoms” value [1, 13] was “Within minutes”. For the same compound, the duration of alleviation [2, 14] was “more than 1 year”, the “time to clear alleviation of symptoms” value [2, 14] was 12 h and the “inflamed tissue at subsequent arthroscopies” value ([2]; 1-10 mL/h for 12 hours, arthroscopies after 1, 2, 7, 14 and 28 days) was “only a very little inflamed tissue was present”. The postoperative pain ([3]; Example 5: 50 mL of 100 nmolar solution into closed joint capsule after knee joint prosthesis) was “possible to minimize postoperative pain”, the postoperative pain ([3]; Example 6: 50 mL of 100 nmolar solution into periprosthetic region without capsule after hip joint prosthesis) was “possible to minimize postoperative pain” and the “bone substance about the prosthesis (radiological)” value ([4]; Example 7: 5 μmolar solution) was “the bone substance had consolidated about the prosthesis”. The “duration of alleviation of pain” value [4, 15] was “more than one year”, the “time to alleviation of pain” value [4, 15] was 6 to 12 h and the “infection about the prosthesis” value ([4]; Example 7: 5 μmolar solution, diffusion of RTX along the shaft and about the socket) was “brought very much under control”. For the same compound, the pain after injection [5, 16] was “alleviated permanently”, the “time to alleviation of pain after the injection” value [5, 16] was “A few minutes” and the “joint mobility lost due to capsulitis” value ([5]; Example 11: 9 mL of 100 nmolar solution) was “able to regain the mobility”. The pain after injection [5, 17] was “abated permanently”, the “time to abatement of pain after the injection” value [5, 17] was “A few minutes” and the “joint mobility lost due to capsulitis” value ([5]; Example 12: 3 mL of 500 nmolar solution) was “regained the mobility lost due to capsulitis”. The “duration patient remained asymptomatic” value [6, 18] was “several years”, the “time to disappearance of symptoms” value [6, 18] was ≤ 60 min and the “duration patient remained asymptomatic” value [6, 19] was “several years”. The “time to disappearance of symptoms” value [6, 19] was ≤ 60 min, the “local tolerability (burning, inflammation of tissue)” value ([7]; applied locally, without a local anesthetic) was “no burning and also no inflammation of tissue” and the “effectiveness of RTX by itself versus injection together with a local anesthetic” value ([7]; local intraarticular injection at a very low concentration) was “more effective than an injection together with a local anesthetic”.
